For assay [1], the target named is Casein kinase II subunit alpha' (Homo sapiens, UniProt P19784).
For assay [2], the target named is Mitogen-activated protein kinase kinase kinase kinase 5 (Homo sapiens, UniProt Q9Y4K4).
The target of assay [3] is T1, Serine/threonine-protein kinase D3 (Homo sapiens, UniProt O94806).
T1 sequence (O94806 whole entry): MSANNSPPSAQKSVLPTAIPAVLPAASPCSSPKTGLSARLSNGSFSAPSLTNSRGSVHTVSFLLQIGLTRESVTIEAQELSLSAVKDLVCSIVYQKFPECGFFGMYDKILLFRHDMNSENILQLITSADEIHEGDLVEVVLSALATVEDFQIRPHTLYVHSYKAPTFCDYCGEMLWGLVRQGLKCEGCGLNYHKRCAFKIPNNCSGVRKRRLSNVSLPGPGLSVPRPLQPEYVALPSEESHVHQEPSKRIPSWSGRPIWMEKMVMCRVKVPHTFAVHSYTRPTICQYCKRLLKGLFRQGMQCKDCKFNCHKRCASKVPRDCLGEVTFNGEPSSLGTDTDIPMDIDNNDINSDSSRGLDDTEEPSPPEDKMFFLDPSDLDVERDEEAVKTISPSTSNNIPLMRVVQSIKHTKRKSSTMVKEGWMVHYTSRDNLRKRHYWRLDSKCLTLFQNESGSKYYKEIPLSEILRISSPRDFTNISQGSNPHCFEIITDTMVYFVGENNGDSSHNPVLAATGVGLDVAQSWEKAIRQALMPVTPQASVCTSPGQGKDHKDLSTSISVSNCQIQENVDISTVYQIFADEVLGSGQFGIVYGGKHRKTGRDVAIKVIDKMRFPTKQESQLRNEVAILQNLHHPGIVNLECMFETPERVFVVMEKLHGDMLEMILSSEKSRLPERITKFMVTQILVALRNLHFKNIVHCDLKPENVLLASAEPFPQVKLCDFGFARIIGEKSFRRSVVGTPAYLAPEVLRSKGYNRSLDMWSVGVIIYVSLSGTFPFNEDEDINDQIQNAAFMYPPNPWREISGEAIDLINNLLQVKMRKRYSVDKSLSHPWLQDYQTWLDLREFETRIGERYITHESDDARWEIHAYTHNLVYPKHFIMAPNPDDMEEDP

For assay [4], the target named is Dual specificity mitogen-activated protein kinase kinase 2 (Homo sapiens, UniProt P36507).
Dual specificity mitogen-activated protein kinase kinase 2, sequence (P36507 whole entry): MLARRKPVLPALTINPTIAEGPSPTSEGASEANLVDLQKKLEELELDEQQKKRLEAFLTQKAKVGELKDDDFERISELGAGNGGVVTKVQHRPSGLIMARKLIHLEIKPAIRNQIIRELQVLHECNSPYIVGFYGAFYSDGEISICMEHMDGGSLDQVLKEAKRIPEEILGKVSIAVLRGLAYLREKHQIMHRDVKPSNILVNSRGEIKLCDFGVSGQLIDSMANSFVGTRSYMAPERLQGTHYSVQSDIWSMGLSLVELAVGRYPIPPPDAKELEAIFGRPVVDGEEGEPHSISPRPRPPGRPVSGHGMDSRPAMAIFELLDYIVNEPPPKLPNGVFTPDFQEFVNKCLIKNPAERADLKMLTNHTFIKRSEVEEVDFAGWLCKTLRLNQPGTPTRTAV
Assay [5] concerns the target T2, Mitogen-activated protein kinase kinase kinase 5 (Homo sapiens, UniProt Q99683).
T2 sequence (Q99683 whole entry): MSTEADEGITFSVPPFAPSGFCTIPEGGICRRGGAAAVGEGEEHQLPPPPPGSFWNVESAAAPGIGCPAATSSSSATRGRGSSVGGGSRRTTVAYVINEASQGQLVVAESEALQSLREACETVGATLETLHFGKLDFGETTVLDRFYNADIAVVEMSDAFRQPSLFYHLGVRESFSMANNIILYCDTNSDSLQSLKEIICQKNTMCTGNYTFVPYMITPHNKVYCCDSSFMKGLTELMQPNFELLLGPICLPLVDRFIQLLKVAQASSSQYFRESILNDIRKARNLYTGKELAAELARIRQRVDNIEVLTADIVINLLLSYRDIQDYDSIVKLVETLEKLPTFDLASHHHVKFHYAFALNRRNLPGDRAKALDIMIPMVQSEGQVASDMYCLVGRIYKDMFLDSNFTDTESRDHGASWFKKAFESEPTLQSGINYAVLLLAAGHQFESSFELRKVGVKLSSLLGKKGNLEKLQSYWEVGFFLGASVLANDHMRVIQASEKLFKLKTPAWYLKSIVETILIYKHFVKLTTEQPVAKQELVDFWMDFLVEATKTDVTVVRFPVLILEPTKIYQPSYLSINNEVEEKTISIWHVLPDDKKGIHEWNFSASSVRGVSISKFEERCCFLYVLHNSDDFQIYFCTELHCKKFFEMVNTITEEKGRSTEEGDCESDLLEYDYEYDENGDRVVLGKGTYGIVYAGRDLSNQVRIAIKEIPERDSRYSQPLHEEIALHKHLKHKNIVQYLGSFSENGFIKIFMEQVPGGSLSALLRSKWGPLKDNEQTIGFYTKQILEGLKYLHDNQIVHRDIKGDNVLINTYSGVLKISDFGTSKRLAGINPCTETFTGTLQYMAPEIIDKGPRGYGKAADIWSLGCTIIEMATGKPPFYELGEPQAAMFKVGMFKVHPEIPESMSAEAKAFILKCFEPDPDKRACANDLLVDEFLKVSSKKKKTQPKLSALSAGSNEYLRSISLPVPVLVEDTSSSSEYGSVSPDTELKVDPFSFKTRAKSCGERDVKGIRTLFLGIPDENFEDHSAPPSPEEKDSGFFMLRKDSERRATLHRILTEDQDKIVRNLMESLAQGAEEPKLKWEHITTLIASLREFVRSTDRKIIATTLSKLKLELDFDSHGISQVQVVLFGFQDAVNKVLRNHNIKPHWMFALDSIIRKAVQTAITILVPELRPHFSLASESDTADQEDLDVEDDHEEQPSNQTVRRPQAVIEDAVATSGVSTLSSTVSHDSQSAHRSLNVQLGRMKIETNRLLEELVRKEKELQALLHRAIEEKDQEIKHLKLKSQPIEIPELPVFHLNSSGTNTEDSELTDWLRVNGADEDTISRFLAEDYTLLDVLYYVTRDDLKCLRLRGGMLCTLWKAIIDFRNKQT

For assay [6], the target named is T3, Tyrosine-protein kinase Tec (Homo sapiens, UniProt P42680).
T3 sequence (P42680 whole entry): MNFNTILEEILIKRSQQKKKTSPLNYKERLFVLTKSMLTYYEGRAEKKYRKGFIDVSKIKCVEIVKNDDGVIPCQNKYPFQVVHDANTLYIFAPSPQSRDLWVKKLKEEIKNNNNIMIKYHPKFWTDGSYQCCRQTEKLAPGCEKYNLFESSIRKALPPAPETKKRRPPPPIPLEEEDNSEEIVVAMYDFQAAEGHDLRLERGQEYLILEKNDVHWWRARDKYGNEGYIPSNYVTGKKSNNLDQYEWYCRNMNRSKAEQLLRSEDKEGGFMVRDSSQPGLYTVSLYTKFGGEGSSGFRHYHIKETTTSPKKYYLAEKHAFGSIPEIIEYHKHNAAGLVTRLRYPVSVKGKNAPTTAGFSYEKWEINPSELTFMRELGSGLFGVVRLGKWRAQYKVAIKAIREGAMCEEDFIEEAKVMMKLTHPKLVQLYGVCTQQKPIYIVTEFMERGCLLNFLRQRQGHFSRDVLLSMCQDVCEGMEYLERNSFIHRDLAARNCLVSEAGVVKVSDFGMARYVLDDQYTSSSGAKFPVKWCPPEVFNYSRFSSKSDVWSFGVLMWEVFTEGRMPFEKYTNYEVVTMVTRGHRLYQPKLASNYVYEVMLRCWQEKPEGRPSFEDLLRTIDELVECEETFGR

Molecules are shown by their SMILES. Active and inactive are the calls of the source. Rule as the data show it, for most assays here: actives have a measured Kd and inactives only a lower limit. Bounds are passed on as bounds.
Also: in the data inactive means no Kd found up to 30 µM.

Mitogen-activated protein kinase kinase kinase kinase 5, sequence (Q9Y4K4 whole entry): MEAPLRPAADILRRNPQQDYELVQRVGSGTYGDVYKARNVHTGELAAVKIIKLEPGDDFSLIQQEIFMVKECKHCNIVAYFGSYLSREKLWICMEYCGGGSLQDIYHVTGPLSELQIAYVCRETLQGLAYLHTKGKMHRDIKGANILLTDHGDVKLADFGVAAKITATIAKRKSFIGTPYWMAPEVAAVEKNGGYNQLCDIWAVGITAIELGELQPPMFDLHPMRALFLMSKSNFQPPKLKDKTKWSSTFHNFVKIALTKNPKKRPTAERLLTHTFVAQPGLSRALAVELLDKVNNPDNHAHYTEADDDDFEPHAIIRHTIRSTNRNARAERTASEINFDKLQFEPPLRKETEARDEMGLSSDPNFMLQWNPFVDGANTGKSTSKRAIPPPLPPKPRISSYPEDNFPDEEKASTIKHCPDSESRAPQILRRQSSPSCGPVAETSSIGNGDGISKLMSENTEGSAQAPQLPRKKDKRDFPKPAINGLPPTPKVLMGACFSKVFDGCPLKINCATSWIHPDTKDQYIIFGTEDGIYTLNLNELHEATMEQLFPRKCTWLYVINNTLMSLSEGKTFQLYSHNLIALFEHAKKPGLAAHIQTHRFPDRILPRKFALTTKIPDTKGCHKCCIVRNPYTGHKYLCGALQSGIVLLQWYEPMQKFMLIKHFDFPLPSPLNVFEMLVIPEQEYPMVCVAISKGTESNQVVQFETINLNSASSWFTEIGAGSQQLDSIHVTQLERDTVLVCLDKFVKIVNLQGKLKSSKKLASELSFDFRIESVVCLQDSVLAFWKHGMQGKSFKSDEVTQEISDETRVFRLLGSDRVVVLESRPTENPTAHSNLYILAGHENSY
Casein kinase II subunit alpha', sequence (P19784 whole entry): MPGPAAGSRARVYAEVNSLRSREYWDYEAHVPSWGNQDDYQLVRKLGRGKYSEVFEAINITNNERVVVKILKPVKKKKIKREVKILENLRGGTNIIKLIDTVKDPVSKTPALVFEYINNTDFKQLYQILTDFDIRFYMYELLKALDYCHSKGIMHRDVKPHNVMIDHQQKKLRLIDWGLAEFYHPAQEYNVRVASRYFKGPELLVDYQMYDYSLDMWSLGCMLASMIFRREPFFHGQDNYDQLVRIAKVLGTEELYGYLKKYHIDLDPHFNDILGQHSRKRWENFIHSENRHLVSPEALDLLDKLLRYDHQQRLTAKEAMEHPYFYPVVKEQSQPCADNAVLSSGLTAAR

Take `COc1cc(CCc2cc(NC(=O)c3ccc(N4C[C@@H](C)N[C@@H](C)C4)cc3)n[nH]2)cc(OC)c1` [AZD-4547]: the Kd in assay [1] was > 30 µM (inactive); in assay [2], 0.006 µM (active); in assay [3], > 30 µM (inactive); in assay [4] it was > 30 µM (inactive); in assay [5], > 30 µM (inactive); in assay [6], > 30 µM (inactive).

For the compound `CNC(=O)c1ccc(-c2cnc3ncc(Cc4ccc5ncccc5c4)n3n2)cc1F` [CAPMATINIB], the Kd in assay [1], in assay [2], in assay [3], in assay [4], in assay [5] and in assay [6] was > 30 µM (inactive) throughout.

Consider `CN1CC[C@@H](c2c(O)cc(O)c3c(=O)cc(-c4ccccc4Cl)oc23)[C@@H]1CO`, for which the Kd in assay [1] was > 30 µM (inactive); in assay [2] it was > 30 µM (inactive); in assay [3], 2.54 µM (active); in assay [4], > 30 µM (inactive); in assay [5], > 30 µM (inactive); in assay [6], > 30 µM (inactive).

Turning to `N[C@@H]1CCCN(c2c(/C=C3\SC(=O)NC3=O)cccc2-c2ccccc2)C1`, the Kd in assay [1] was 3.02 µM (active); in assay [2] it was > 30 µM (inactive); in assay [3], > 30 µM (inactive); in assay [4], > 30 µM (inactive); in assay [5], > 30 µM (inactive); in assay [6] it was > 30 µM (inactive).

For the compound `CCN1CCN(Cc2ccc(-c3cc4c(N[C@H](C)c5ccccc5)ncnc4[nH]3)cc2)CC1` [AEE-788], the Kd in assay [1] was > 30 µM (inactive); in assay [2], 50.2 µM (active); in assay [3] it was > 30 µM (inactive); in assay [4], > 30 µM (inactive); in assay [5] it was > 30 µM (inactive); in assay [6] it was > 30 µM (inactive).

`C[C@@H]1CN(Cc2ccc(F)cc2)[C@@H](C)CN1C(=O)c1cc2c(C(=O)C(=O)N(C)C)cn(C)c2cc1Cl` [TALMAPIMOD]: the Kd in assay [1], in assay [2], in assay [3], in assay [4], in assay [5] and in assay [6] was > 30 µM (inactive) in each case.

Regarding `O=C(Nc1ccc(-c2ccnc(Nc3ccc(N4CCOCC4)cc3)n2)cc1)C1CCCN1` (stereo not given) [XL-019], the Kd in assay [1] was 7.15 µM (active); in assay [2], > 30 µM (inactive); in assay [3], 2.96 µM (active); in assay [4] it was > 30 µM (inactive); in assay [5], > 30 µM (inactive); in assay [6], > 30 µM (inactive).

Take `CN1CCC(COc2cnc(-c3cccc(Cn4nc(-c5cccc(C#N)c5)ccc4=O)c3)nc2)CC1` [TEPOTINIB]: the Kd in assay [1], in assay [2], in assay [3], in assay [4], in assay [5] and in assay [6] was > 30 µM (inactive) throughout.

As for `CCn1c(=O)c(-c2cc[nH]n2)cc2c(C)nc(N)nc21` [VOXTALISIB], the Kd in assay [1], in assay [2], in assay [3], in assay [4], in assay [5] and in assay [6] was > 30 µM (inactive) each time.

For `Cn1cc(-c2ccc(F)c(C(F)(F)F)c2)nc1C1CCN(c2ncnc3[nH]ncc23)CC1` [LY-2584702], the Kd in assay [1], in assay [2], in assay [3], in assay [4], in assay [5] and in assay [6] was > 30 µM (inactive) each time.

On to `Cc1cc2c(F)c(Oc3ncnn4cc(OC[C@@H](C)OC(=O)[C@H](C)N)c(C)c34)ccc2[nH]1` [BRIVANIB ALANINATE], for which the Kd in assay [1], in assay [2], in assay [3], in assay [4], in assay [5] and in assay [6] was > 30 µM (inactive) throughout.

For the compound `CNC(=O)c1ccc(C)c(-n2c(C)cc(OCc3ccc(F)cc3F)c(Br)c2=O)c1` [PH-797804], the Kd in assay [1], in assay [2], in assay [3], in assay [4], in assay [5] and in assay [6] was > 30 µM (inactive) each time.

As to `CNC(=O)c1cc(Oc2ccc(NC(=O)Nc3ccc(Cl)c(C(F)(F)F)c3)c(F)c2)ccn1` [REGORAFENIB], the Kd in assay [1], in assay [2], in assay [3], in assay [4], in assay [5] and in assay [6] was > 30 µM (inactive) throughout.

On to `COC(=O)N[C@@H](C)CNc1nccc(-c2cn(C(C)C)nc2-c2cc(Cl)cc(NS(C)(=O)=O)c2F)n1` [ENCORAFENIB], for which the Kd in assay [1], in assay [2], in assay [3], in assay [4], in assay [5] and in assay [6] was > 30 µM (inactive) in each case.

Turning to `Cc1c(F)cc(C(=O)NC2CC2)cc1-c1ccc(C(=O)NCC(C)(C)C)cn1` [LOSMAPIMOD], the Kd in assay [1], in assay [2], in assay [3], in assay [4], in assay [5] and in assay [6] was > 30 µM (inactive) throughout.

The record behind these values is ChEMBL document CHEMBL3991601, “The target landscape of clinical kinase drugs” (Science, 2017).
